According to patent US4401660A, “Ester derivatives of 5-O-mycaminosyl tylonolide and method of using same” (Eli Lilly and Company, priority 1981, dated 1983):

Experiments:
[1] = test system: Streptococcus pyogenes C203; assay: MIC, standard agar-dilution assay (Table II); type: cell-based; parameters: unit not given here
Experimental: (§1) The MIC's in Table II were determined by standard agar-dilution assays. The MIC's in Table III were obtained using a conventional broth-dilution microtiter test.

[2] = test system: Streptococcus Group D X66; assay: MIC, standard agar-dilution assay (Table II); type: cell-based; parameters: unit not given here
Experimental: as §1

[3] = test system: Streptococcus pneumoniae Park I; assay: MIC, standard agar-dilution assay (Table II); type: cell-based; parameters: unit not given here
Experimental: as §1

[4] = test system: Staphylococcus aureus S13E; assay: MIC, standard agar-dilution assay (Table II); type: cell-based; parameters: unit not given here
Experimental: as §1

[5] = test system: Staphylococcus aureus X400; assay: MIC, standard agar-dilution assay (Table II); type: cell-based; parameters: unit not given here; details: Staphylococcus aureus X400, methicillin-resistant strain
Experimental: as §1

[6] = test system: Staphylococcus epidermidis EPI2; assay: MIC, standard agar-dilution assay (Table II); type: cell-based; parameters: unit not given here
Experimental: as §1

[7] = test system: Staphylococcus epidermidis EPI1; assay: MIC, standard agar-dilution assay (Table II); type: cell-based; parameters: unit not given here
Experimental: as §1

[8] = test system: Streptococcus Group D 9960; assay: MIC, standard agar-dilution assay (Table II); type: cell-based; parameters: unit not given here
Experimental: as §1

[9] = test system: Staphylococcus aureus X1.1; assay: MIC, standard agar-dilution assay (Table II); type: cell-based; parameters: unit not given here
Experimental: as §1

[10] = test system: Staphylococcus aureus V41; assay: MIC, standard agar-dilution assay (Table II); type: cell-based; parameters: unit not given here; details: Staphylococcus aureus V41, penicillin-resistant strain
Experimental: as §1

[11] = test system: Pasteurella multocida; assay: Treatment of Pasteurella infections in chicks (Table V); type: in vivo, one-day-old chicks; details: Pasteurella multocida, sc, 4 h; 30 mg/kg by subcutaneous injection one and four hours post challenge; read-out: Deaths in Treated Chicks/Number Treated (converted)
Experimental: Certain OMT ester derivatives are active in vivo against Pasteurella infections. Table V summarizes the results of tests in which the ester derivatives were administered to one-day-old chicks at a dosage level of 30 mg/kg by subcutaneous injection one and four hours post challenge of the chicks with Pasteurella multocida (0.1 ml of a 10^-3 dilution of a 20-hour tryptose broth culture of avian P. multocida given subcutaneously). All nonmedicated infected chicks (ten in each control group) died within 24 hours of Pasteurella challenge.

[12] = test system: Pasteurella haemolytica 22C; assay: MIC, broth-dilution microtiter test (Table III); type: cell-based; parameters: unit not given here
Experimental: as §1

[13] = test system: Mycoplasma gallisepticum; assay: MIC, broth-dilution microtiter test (Table III); type: cell-based; parameters: unit not given here
Experimental: as §1

[14] = test system: Pasteurella multocida 40G; assay: MIC, broth-dilution microtiter test (Table III); type: cell-based; parameters: unit not given here
Experimental: as §1

[15] = test system: Pasteurella multocida 60A; assay: MIC, broth-dilution microtiter test (Table III); type: cell-based; parameters: unit not given here; details: avian isolate
Experimental: as §1

[16] = test system: Pasteurella multocida 68C; assay: MIC, broth-dilution microtiter test (Table III); type: cell-based; parameters: unit not given here
Experimental: as §1

[17] = test system: Staphylococcus aureus; assay: MIC, broth-dilution microtiter test (Table III); type: cell-based; parameters: unit not given here
Experimental: as §1

[18] = test system: Pasteurella multocida 22A; assay: MIC, broth-dilution microtiter test (Table III); type: cell-based; parameters: unit not given here
Experimental: as §1

[19] = test system: Mycoplasma hyorhinis; assay: MIC, broth-dilution microtiter test (Table III); type: cell-based; parameters: unit not given here
Experimental: as §1

[20] = test system: Pasteurella multocida 17E; assay: MIC, broth-dilution microtiter test (Table III); type: cell-based; parameters: unit not given here; details: bovine isolate
Experimental: as §1

[21] = test system: Mycoplasma synoviae; assay: MIC, broth-dilution microtiter test (Table III); type: cell-based; parameters: unit not given here
Experimental: as §1

[22] = test system: Pasteurella haemolytica 41D; assay: MIC, broth-dilution microtiter test (Table III); type: cell-based; parameters: unit not given here
Experimental: as §1

[23] = test system: Streptococcus sp. 80; assay: MIC, broth-dilution microtiter test (Table III); type: cell-based; parameters: unit not given here
Experimental: as §1

[24] = test system: Pasteurella haemolytica 23C; assay: MIC, broth-dilution microtiter test (Table III); type: cell-based; parameters: unit not given here
Experimental: as §1

[25] = test system: Haemophilus influenzae R252; assay: MIC, standard agar-dilution assay (Table II); type: cell-based; parameters: unit not given here; details: Haemophilus influenzae R252, ampicillin-resistant strain
Experimental: as §1

[26] = test system: Haemophilus influenzae Holt; assay: MIC, standard agar-dilution assay (Table II); type: cell-based; parameters: unit not given here; details: ampicillin-sensitive strain
Experimental: as §1

| Structure (SMILES) | minimal inhibitory concentration (MIC) [1] | minimal inhibitory concentration (MIC) [2] | minimal inhibitory concentration (MIC) [3] | minimal inhibitory concentration (MIC) [4] | minimal inhibitory concentration (MIC) [5] | minimal inhibitory concentration (MIC) [6] | minimal inhibitory concentration (MIC) [7] | minimal inhibitory concentration (MIC) [8] | minimal inhibitory concentration (MIC) [9] | minimal inhibitory concentration (MIC) [10] | mortality at 30 mg/kg [11] | minimal inhibitory concentration (MIC) [12] | minimal inhibitory concentration (MIC) [13] | minimal inhibitory concentration (MIC) [14] | minimal inhibitory concentration (MIC) [15] | minimal inhibitory concentration (MIC) [17] | minimal inhibitory concentration (MIC) [19] | minimal inhibitory concentration (MIC) [20] | minimal inhibitory concentration (MIC) [21] | minimal inhibitory concentration (MIC) [23] | also measured |
| --- | --- | --- | --- | --- | --- | --- | --- | --- | --- | --- | --- | --- | --- | --- | --- | --- | --- | --- | --- | --- | --- |
| CCC1OC(=O)CC(O)C(C)C(OC2OC(C)C(OC(C)=O)C(N(C)C)C2OC(C)=O)C(CC=O)CC(C)C(=O)C=CC(C)=CC1COS(=O)(=O)c1ccc(NC(C)=O)cc1 (stereo not drawn) [Compound 47, 23-O-(p-Acetamidobenzenesulfonyl)-2',4'-di-O-acetyl-OMT] | 0.125 | 1 | 0.125 | 1 | 2 | 2 | 1 | 1 | 1 | 2 | 90% | 12.5 | 0.195 | 12.5 | 3.12 | 0.78 | 12.5 | 6.25 | 1.56 | < 0.05 | minimal inhibitory concentration (MIC) [16]: 3.12; minimal inhibitory concentration (MIC) [18]: 12.5; minimal inhibitory concentration (MIC) [22]: 12.5; minimal inhibitory concentration (MIC) [24]: 12.5 |
| CCC1OC(=O)CC(O)C(C)C(OC2OC(C)C(OC(C)=O)C(N(C)C)C2OC(C)=O)C(CC=O)CC(C)C(=O)C=CC(C)=CC1COC(=O)Cc1cccnc1 (stereo not drawn) [Compound 43, 2',4'-Di-O-acetyl-23O-(3-pyridylacetyl)-OMT] | 0.06 | 0.25 | 0.06 | 0.25 | 0.5 | 0.5 | 0.25 | 0.25 | 0.25 | 0.5 | 80% | 6.25 | 0.78 | 3.12 | 3.12 | 0.39 | 0.78 | 3.12 | < 0.05 | 0.195 | minimal inhibitory concentration (MIC) [16]: 1.56; minimal inhibitory concentration (MIC) [18]: 3.12; minimal inhibitory concentration (MIC) [22]: 3.12; minimal inhibitory concentration (MIC) [24]: 6.25 |
| CCC1OC(=O)CC(O)C(C)C(OC2OC(C)C(O)C(N(C)C)C2OC(C)=O)C(CC=O)CC(C)C(=O)C=CC(C)=CC1COC(=O)Cc1ccc(Cl)cc1 (stereo not drawn) [Compound 31, 2'-O-Acetyl-23-O-(p-chlorophenylacetyl)-OMT] | 0.125 | 0.125 | 0.03 | 0.125 | 0.25 | 0.25 | 0.125 | 0.125 | 0.125 | 0.125 | 100% | 1.56 | < 0.05 | 1.56 | 0.78 | < 0.05 | 3.12 | 1.56 | < 0.05 | < 0.05 | minimal inhibitory concentration (MIC) [16]: 0.78; minimal inhibitory concentration (MIC) [18]: 1.56; minimal inhibitory concentration (MIC) [22]: 3.12; minimal inhibitory concentration (MIC) [24]: 1.56 |
| CCC1OC(=O)CC(O)C(C)C(OC2OC(C)C(OC(C)=O)C(N(C)C)C2OC(C)=O)C(CC=O)CC(C)C(=O)C=CC(C)=CC1COC(=O)CC(C)C (stereo not drawn) [Compound 21, 2',4'-Di-O-acetyl-23-O-i-valeryl-OMT] | 0.5 | 0.5 | 0.5 | 0.5 | 1 | 0.5 | 0.5 | 0.5 | 0.5 | 0.5 | 100% | – | < 0.05 | – | 1.56 | 0.39 | 0.78 | 1.56 | < 0.05 | 0.195 | minimal inhibitory concentration (MIC) [25]: 8; minimal inhibitory concentration (MIC) [26]: 2 |
| CCCCCCCC(=O)OCC1C=C(C)C=CC(=O)C(C)CC(CC=O)C(OC2OC(C)C(OC(C)=O)C(N(C)C)C2OC(C)=O)C(C)C(O)CC(=O)OC1CC (stereo not drawn) [Compound 23] | 0.5 | 1 | 0.25 | 0.5 | 1 | 0.5 | 0.5 | 1 | 0.25 | 0.5 | 100% | – | 0.097 | – | 6.25 | 0.78 | 3.12 | 6.25 | 0.39 | 0.39 | minimal inhibitory concentration (MIC) [25]: 8; minimal inhibitory concentration (MIC) [26]: 8 |
| CCCCC(=O)OCC1C=C(C)C=CC(=O)C(C)CC(CC=O)C(OC2OC(C)C(O)C(N(C)C)C2O)C(C)C(O)CC(=O)OC1CC (stereo not drawn) [Compound 20] | 0.25 | 0.5 | 0.06 | 0.25 | 0.5 | 0.25 | 0.25 | 0.5 | 0.25 | 0.25 | 0% | – | < 0.05 | – | 3.12 | 0.39 | 3.12 | 1.56 | < 0.05 | 0.39 | minimal inhibitory concentration (MIC) [25]: 2; minimal inhibitory concentration (MIC) [26]: 2 |
